Counter-ions that a name gives are not always drawn.
Test system: Sprague-Dawley (SD) rats
Assay: Inhibition of GH secretion using Sprague-Dawley rats
Type: in vivo, rat
Details: male SD rats, 3 mg/kg intraperitoneally
Protocol: Male rats of SD strain were divided into the compound treatment group (n=5) and the control group (n=4). The rats in the compound treatment group were administered intraperitoneally with 0.5% methylcellulose saline solution containing the compound of Example 5 in the concentration of 3 mg/kg/5 ml, and the animals of the control group were administered intraperitoneally with 5 ml/kg of 0.5% methylcellulose saline solution. Four hours after administration, the rats were decapitated without anesthesia and whole blood was collected. The aliquots of 1 ml each of the plasma were obtained from the blood by centrifugation at 2,500 rpm at 4° C. for 30 minutes and stored at −20° C. Plasma GH concentrations were determined by RIA using the rat GH [ I] assay system (Amersham).

SMILES: NCc1cccc(C2OC(CC(=O)NCc3ccccc3F)C(=O)N(Cc3ccc(-c4ccccc4)cc3)c3ccc(Cl)cc32)c1 (stereo not drawn) [Example 5, 3,5-Trans-N-(2-fluorobenzyl)-5-(3-aminomethylphenyl)-1-(4-biphenylmethyl)-7-chloro-2-oxo-1,2,3,5-tetrahydro-4,1-benzoxazepine-3-acetamide•monohydrochloride]
- Plasma GH concentrations mean ± SD (four hours after administration, n = 5): 11.2 ± 6.5 ng/mL
- Plasma GH concentration versus control (p<0.05): declined significantly
